The source of these data is patent publication US9939427B2, “Method for evaluating the scent performance of perfumes or perfume mixtures” (Symrise AG, priority 2013, dated 2018).

The structures appear in SMILES notation.

Experiment [1] concerns the target T1, OR10Q1 (Homo sapiens, UniProt Q8NGQ4).
T1 construct: specific primers, which amplify the complete open reading frame; expressed in transfected cells; host or cells: HEK293
T1 sequence (Q8NGQ4 1-319): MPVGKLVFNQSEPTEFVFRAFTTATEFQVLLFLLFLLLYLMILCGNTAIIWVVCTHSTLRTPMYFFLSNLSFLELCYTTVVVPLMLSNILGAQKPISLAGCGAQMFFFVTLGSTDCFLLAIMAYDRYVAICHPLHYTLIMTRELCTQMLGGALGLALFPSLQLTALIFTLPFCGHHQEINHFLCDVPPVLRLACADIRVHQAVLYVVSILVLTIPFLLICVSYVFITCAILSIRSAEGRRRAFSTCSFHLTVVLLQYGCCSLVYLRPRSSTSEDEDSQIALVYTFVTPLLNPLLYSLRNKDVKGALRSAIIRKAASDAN
Briefly: Ca-imaging of OR10Q1-transfected HEK293 cells. The following applies: for Response of OR10Q1 to odorant, in words: single odorants 200 μM. The experiment is classed as cell-based. Details: key to OR10Q1 responded to odorant: ▪: 18 olfactory receptors responded to 32 odorants in related with specific anosmia. On the procedure: (§1) HEK293 cells were cultivated in Petri dishes (Ø35 mm) as previously described (Benbernou et al. 2007). We grow up HEK293 cells in culture medium containing standard DMEM with 10% heat-inactivated fetal bovine serum, 2 mM L-glutamine, 100 units/ml penicillin, and 100 units/ml streptomycin in a humidified atmosphere (37° C., 5% CO2). After 2-3 days, the transfection process was carried out, whereby the cell culture was 70-80% confluent. The calciumphosphate method was applied to transfect DNA plasmid transiently in HEK293 cells in case of Ca-imaging method.
(§2) Calcium cations and phosphate anions created crystal precipitations coupled with DNA which could invade into the cells through endocytosis. Cells were transiently transfected with plasmid DNA which consists of pCI expression vector and PCR-amplified full-length cDNA of olfactory receptors candidates, and also Gα15, RTP1, Myr-Ric8A, HSC70, and m-Cherry as cofactors. The precipitation could be created after 15-20 min, with dropping the transfection solution on HEK293 cells. Before measuring by Ca-imaging cells were incubated 48-60 hours at 370 C, 5% CO2. Cationic liposome-mediated transfection method was applied to transfect DNA plasmid transiently in HANA3A cells in case of CRE-Luciferase and CRE-SEAP assays.
(§3) Calcium imaging of the transfected HEK293 cells was done by using chambers determinate an inverted microscope (Olympus; IX70) using a 10× objective (CPIanFL N Olympus). Fluorescence emission was determined every 4 s by using a CCD camera (Charge Coupled Device, C9100 Hamamatsu). The capillary tube which was responsible to supply odorants was generated closely above the cells. The columns filled with odorants, DMSO and ATP. Odorants were manually monitored to drop each 4-5 s to transfected cells. Solutions with drop wise form spread on HEK293 cells in 35 mm dishes.
(§4) In experiments, Fura-2 Acetoxymethylester (Fura-2/AM) was applied. The non-polar Fura2/AM is fluorescent but not yet calcium-sensitive. Once diffuses into cell plasma, Fura-2/AM is hydrolyzed to Fura-2 which is calcium-sensitive and functions as Ca2+ chelator. Regardless of the presence of calcium, Fura-2 emits at the wavelength of 510 nm. Once Fura-2 binds to free intracellular Ca2+ in cell plasma, its ratio of excitation at wavelengths of 340 nm and 380 nm is changed and correlated to the amount of intracellular Ca2+. According to this feature, the analysis of 340/380 nm excitation ratio for Fura-2 allows to quantify intracellular calcium levels.
(§5) In preparation for Ca-imaging measurements, transfected HEK293 cells were added 3 it Fura2/AM (3 μM) and incubated 30-45 min at 370 C, 5% CO2. After this step, experiments were carried out in a dark condition (Fura-2 is light-sensitive). After the incubation, medium of cell culture was replaced with 2 ml Ringer's solution.
(§6) Odorants were freshly prepared with DMSO as 1 M stocks solutions. Six mixtures (200 μM each chemical) were applied to cells sequentially (20 s each mixture/30 s Ringer). Those ORs tested with single odorants that had generated a response to odorant mixture group previously. Odorants were prepared in 100-200 μM concentration.
(§7) Ringer's solution was used for washing cells between measuring by two different odorants. Positive response was determined by the timing of the response, the strength of the response (more than twofold higher than the noise amplitude of the baseline), and the shape of the response curve (sharp rise in curve with gradual recovery). […]

The target of experiment [2] is T2, OR4K2 (Homo sapiens, UniProt Q8NGD2).
T2 construct: specific primers, which amplify the complete open reading frame; expressed in transfected cells; host or cells: HEK293
T2 sequence (Q8NGD2 1-314): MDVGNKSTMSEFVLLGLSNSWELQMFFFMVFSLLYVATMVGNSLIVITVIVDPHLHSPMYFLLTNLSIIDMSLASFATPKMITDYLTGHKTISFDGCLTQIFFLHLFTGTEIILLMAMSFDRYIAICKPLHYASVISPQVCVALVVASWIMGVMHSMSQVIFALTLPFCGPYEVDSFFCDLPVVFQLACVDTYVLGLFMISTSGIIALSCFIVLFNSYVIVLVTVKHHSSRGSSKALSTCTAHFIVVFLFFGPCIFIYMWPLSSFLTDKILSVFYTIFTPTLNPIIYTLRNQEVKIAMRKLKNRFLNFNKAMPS
Briefly: Ca-imaging of OR4K2-transfected HEK293 cells. The experiment is classed as cell-based. Details: key to OR4K2 responded to odorant: ▪: 18 olfactory receptors responded to 32 odorants in related with specific anosmia. The protocol: as §1, §2, §3, §4, §5, §6, §7

For experiment [3], the system named is OR10Q1-614. In words: Ca-imaging of mutant OR10Q1 in HEK293 cells. The experiment is classed as cell-based, human. The following applies: 200 μM, applied for 20 seconds. From the text: Mutations were introduced for OR1B1 and OR10Q1 by Overlap Extension PCR (OEP). […] Flanking primers in combination with internal primers provided mutated gene segments, Full length primers included EcoRI and NotI restriction sites for further cloning into pCI expression vector. Site-directed mutations were selected for base of minor allele frequency of nucleotide.
In mutagenesis by overlap extension PCR method, initial PCRs provided mutated gene segments, with overlapping complementary 3′ ends carrying desired point mutation that were then mixed and used as template for a subsequent PCR to generate the full-length product. Overlapping strands of these intermediate products hybridize at this 3′ region in a subsequent PCR and are extended to generate the full-length product amplified by flanking primers; this shown in FIG. 2. […]
Calcium imaging of the transfected HEK293 cells was done by using chambers determinate an inverted microscope (Olympus; IX70) using a 10× objective (CPIanFL N Olympus). Fluorescence emission was determined every 4 s by using a CCD camera (Charge Coupled Device, C9100 Hamamatsu). […] Odorants were manually monitored to drop each 4-5 s to transfected cells. […]
In experiments, Fura-2 Acetoxymethylester (Fura-2/AM) was applied. […] According to this feature, the analysis of 340/380 nm excitation ratio for Fura-2 allows to quantify intracellular calcium levels. […]

For the compound `O=C1CCCCCCCCCCCCCCO1` [Pentadecanolide, ω-cyclopentadecanolide], the “OR10Q1 responded to odorant” value in experiment [1] (Ca-imaging, HEK293 cells, individual odorant 200 μM, significant response p<0.05) is “▪”. Moreover, the “Response of OR10Q1 to odorant, in words” value is listed as “responded” in experiment [1] (Ca-imaging); “significantly responded” in experiment [1] (Ca-imaging, listed as Cyclopentadecanolide); “responded” in experiment [1] (Ca-imaging, listed as Pentadecalactone). Also, the “Number of cell responses, Experiment (OR10Q1)” value in experiment [1] (odorant 200 μM, approximately 2000 transfected cells in three times of measuring (Table 4, FIG. 5)) is 52. The “OR4K2 responded to odorant” value in experiment [2] (HEK293 cells, individual odorant 200 μM, significant response p<0.05) is on record as “▪”. For the same compound, the “Response of OR4K2 to odorant, in words” value in experiment [2] (single odorants 200 μM) is given as “responded”. The results for the “Response of mutated OR10Q1 in comparison with OR10Q1 WT” value in experiment [3] and in experiment [3] (listed as pentadecalactone) were “does not show any significant difference” and “did not show any difference”, respectively.
